Assay results reported in US20130115622A1, “PHARMACEUTICAL COMPOSITION FOR PREVENTION AND TREATMENT OF AMYOTROPHIC LATERAL SCLEROSIS” (KYOTO UNIVERSITY, priority 2009, published 2013).
Where a name gives a salt, the structure may show the parent alone.

Test system: SOD1
Assay: Analysis of SOD1 in iPS cell-derived astrocytes (Western blotting)
Format: cell-based, human
Settings: astrocytes differentiated from ALS patient iPS cells (SOD1 L106V); 5 nM, 50 nM, 500 nM and 5 μM; 48 hours incubation; Western blotting vs vehicle 0.5% DMSO
Experimental: The iPS cell-derived astrocytes were seeded to a 6-well plate at a density of 250,000 cells/well. After a vehicle [0.5% dimethylsulfoxide (DMSO)], cycloheximide at a final concentration of 5 μg/ml, and Atorvastatin Calcium Salt (Toronto Research Chemicals Inc.) at various final concentrations (5 nM, 50 nM, 500 nM and 5 μM) were added, the plate was incubated for 48 hours. Subsequently, the cells were recovered, and lysed using a 20 mM Hepes, pH 7.4, containing 1% triton X-100, 10% glycerol, 5 mM EDTA, 120 mM NaCl and protease inhibitor cocktail (Complete; Roche), on ice for 30 minutes. The cell lysate was centrifuged at 15,000 rpm, 4° C. for 30 minutes, and the supernatant was recovered. Western blotting was performed using this cytolysis supernatant. Specifically, 20 μg aliquot of the protein was separated by SDS-PAGE (4-12% polyacrylamide gels), transferred to a PVDF membrane, and incubated with an anti-SOD1 antibody (1:2000 dilution) (Stressgen Company) or an anti-β-actin antibody (1:5000 dilution) (Sigma-Aldrich Company). After the incubation, the amount expressed was detected by ECL (Enhanced ChemiLuminescence) using an HRP-linked anti-rabbit IgG antibody (1:5000; GE healthcare) and an HRP-linked anti-mouse IgG antibody (1:5000; GE healthcare). […] Meanwhile, when the vehicle DMSO alone was added to the human iPS cell 253G4 described by Nakagawa M et al. in Nat. Biotechnol. […]

SMILES: CC(C)c1c(C(=O)Nc2ccccc2)c(-c2ccccc2)c(-c2ccc(F)cc2)n1CC[C@H](O)C[C@@H](O)CC(=O)O [Atorvastatin Calcium Salt, (3R,5S)-7-[2-(4-fluorophenyl)-5-(1-methylethyl)-3-phenyl-4-phenylaminocarbonyl-1H-pyrrol-1-yl]-3,5-dihydroxyheptanoic acid]
- expression of SOD1 (amount of SOD1 protein): a reduction in the expression of SOD1 was observed
